Source: patent publication US11426381B2, “Lipoic acid choline ester compositions and methods of use” (NOVARTIS AG, priority 2014, dated 2022)
Each block holds one compound with its values, some of them ahead of it.

What was measured:
[1] = Stability of LACE chloride in propylene glycol (HPLC potency); format: physicochemical; settings: 1.0% in propylene glycol
Experimental: The HPLC method to analyze LACE Chloride used a Phenomenex Luna CN column with a 5 um particle size, 100 A pore size, 2.0 mm inner diameter, and 50 mm length (PN: 00B-4255-B0). The mobile phase consisted of 50% of 0.1 M Sodium Acetate and 50% Acetonitrile. The flow rate was 1.0 mL/min, the detection wavelength was 225 nm, the column temperature was 40° C., the injection volume was 20 uL, and the run time was 50 minutes. The working LACE chloride concentration was 0.1 mg/mL and plastic HPLC vials were used for the analysis.
A solution of LACE chloride in propylene glycol was prepared to determine its stability. A solution of 1.0% LACE chloride in propylene glycol was prepared and stored at −20° C. (ambient RH), 5° C. (ambient RH), and 25° C. (40% RH). The solutions were tested for LACE chloride potency after storage for 3 months.
In these samples, HPLC analysis (using the method described in Example 2) a peak with relative retention time (RRT) of approximately 0.73. […] No additional peaks are detected. The peak at 0.73 RRT is not detected in the LACE chloride solutions in citrate buffer.

mouse lenses (C57BL/6J) = assay: In vitro mouse lens elasticity (coverslip method); settings: eight month old mouse lenses, 12 hours incubation
Experimental: (§1) In vitro test: Eight month old mouse lenses (C57BL/6J) were incubated for 12 hours in medium supplemented with selected levels (0-500 μM) of lipoic acid (LA). Lens elasticity was measured using the coverslip method known. After elasticity measurements, lenses were homogenized in a dissociation medium containing alkylating agent 1 (free SH modification). The homogenate was filtered and the rinsed, resuspended, retentate was treated with reducing agent (TCEP) and alkylating agent 2 (S-S SHs modified). After filtration and rinses, the levels of alkylated SH groups in retentate 2 was determined. Bovine serum albumin was the positive control for the sulfhydryl analysis.

lens protein disulfides = assay: In vitro mouse lens protein disulfide analysis; settings: eight month old mouse lenses, 12 hours incubation
Experimental: as §1

[2] = system: New Zealand white rabbits; assay: Draize test for eye drop ocular safety; format: in vivo, rabbit; settings: EV06 3%-5%
Experimental: Safety of the EV06 was evaluated by the Draize test to evaluate its use at concentrations as high as 5%. The Draize Test is an acute toxicity test devised in 1944 by Food and Drug Administration (FDA) toxicologists John H. Draize and Jacob M. Spines. Initially used for testing cosmetics, the procedure involves applying 0.5 mL or 0.5 g of a test substance to the eye or skin of a restrained, conscious animal, and then leaving it for set amount of time before rinsing it out and recording its effects. Corneal, iris, and conjunctival responses were evaluated using the scale described by Draize et al., J. Pharmacol. & Exp. Therapeutics, 82:377-390 (1944)]. Because of the importance of the cornea to vision, 73% of the Draize score is based on corneal damage. A normal score was 0, increasing amounts of damage result in a higher score, with the maximum score possible being 110. A Draize score was computed at each observation time by averaging the total scores of all rabbits tested. Observations were made and recorded 24, 48, and 72 hours after treatment.
This test consists of instilling 30 to 50 μL of the product into one eye of 6 New Zealand white rabbits and monitoring to observe any abnormal clinical signs such as redness of conjunctiva, swelling, or increased blinking which may indicate irritation.

[3] = Toxicokinetics (plasma levels) in GLP rabbit study; format: in vivo; settings: rabbits; topical DIOPTIN three times daily
Experimental: Screening studies were conducted to determine the highest tolerated concentration when applied topically to rabbit eyes, in conjunction with bioanalysis of corneal, aqueous humor, and lens concentrations of EV06 and its metabolites. In a GLP rabbit study, animals were treated with topical 0, 1, 3 or 4% DIOPTIN™ (lipoic acid choline ester) solution three times daily for 90 consecutive days. Slit-lamp exams and fundoscopy were performed at pre-dose baseline and after 1, 30, and 90 days of dosing. Daily clinical observations, food consumption, body weights, clinical pathology, and toxicokinetics were performed. Full necropsy and ocular histopathology were also conducted.

[4] = Corneal penetration and ocular pharmacokinetics in rabbits (HPLC-ESI/MS/MS); format: in vivo, rabbit
Experimental: Esters of lipoic acid were evaluated in rabbits for corneal penetration. Rabbits were also used to examine the metabolism, absorption, and distribution of LACE (LA prodrug) using HPLC-ESI/MS/MS (LOD>2 ng/ml).

[5] = Stability of LACE in neat glycerol; format: physicochemical; settings: mixed in neat glycerol, 80° C. for 8 hours
Experimental: Lipoic acid choline ester was mixed in neat glycerol (no water) with brief heating to 80° C. for 8 hours. High concentrations of lipoic acid choline ester in a final clear solution were found. The final clear solution is stable.

stability of LACE chloride in propylene glycol ([1]; 3 months storage at 5° C. and 25° C.): not stable | conversion to peak at RRT approximately 0.73 ([1]; stored at room temperature, 3 months): completely converted
Structure (SMILES): C[N+](C)(C)CCOC(=O)CCCC[C@@H]1CCSS1.[Cl-] [LACE chloride, lipoic acid choline ester chloride]

EC50 (mouse lenses (C57BL/6J); 0-500 μM LA, read-out: [LA]50 for increase in lens elasticity): 50 ± 10 µM | EC50 (lens protein disulfides; 0-500 μM LA, read-out: [LA]50 for decrease in lens protein disulfides): 50 ± 10 µM
Structure (SMILES): O=C(O)CCCCC1CCSS1 (centres unmarked) [LA, lipoic acid]
concentration of maximal effect on lens elasticity (mouse lenses (C57BL/6J)): 100 µM | concentration of maximal effect on lens protein disulfides (lens protein disulfides): 100 µM

corneal penetration compared with lipoic acid [4]: improve penetration over lipoic acid | stability of clear solution in neat glycerol [5]: stable
Structure (SMILES): C[N+](C)(C)CCOC(=O)CCCC[C@@H]1CCSS1 [LACE, lipoic acid choline ester]
Draize Rabbit Eye test score ([2]; 30 to 50 μL into one eye, scale 0 to 110): 2.0+/−0.6 | Draize test classification ([2]; New Zealand white rabbits): not corrosive or irritating | Plasma levels of EV06 [3]: at or below the limits of detection
